Assays:
[1] = test system: ENR+CD organoids (ISC to Paneth cell differentiation); assay: Primary screen: CCh-stimulated lysozyme secretion LYZ.S, 2.5-D 384-well ENR+CD organoid differentiation; assay type: cell-based, mouse; conditions: primary screen
Source text: (§1) High-throughput screening.

ENR+CD organoids = assay: Primary screen: ATP (CellTiter-Glo 3D, CTG) cell number/viability, 2.5-D 384-well ENR+CD organoids;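 note: compounds given at plating and again on day 3 over a 6-day differentiation from ENR+CV stem-cell-enriched precursors, ATP measured on day 6, plate median as control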
[2] = test system: ENR+CD organoids (ISC to Paneth cell differentiation); assay: Primary screen: basal (non-stimulated) lysozyme secretion LYZ.NS, 2.5-D 384-well ENR+CD organoid differentiation; assay type: cell-based, mouse
Source text: as §1

[3] = dose 0.08 uM, FC vs plate median
[4] = dose 0.40 uM, FC vs plate median
[5] = dose 2.00 uM, FC vs plate median
[6] = dose 10.00 uM, FC vs plate median
[7] = primary screen, dose 0.08 uM, standard z score
[8] = primary screen, dose 0.40 uM, standard z score
[9] = primary screen, dose 2.00 uM, standard z score
[10] = primary screen, dose 10.00 uM, standard z score
[11] = primary screen; dose 0.08 uM; FC vs plate median
[12] = primary screen; dose 0.40 uM; FC vs plate median
[13] = primary screen; dose 2.00 uM; FC vs plate median
[14] = primary screen; dose 10.00 uM; FC vs plate median
[15] = primary screen, standard z score, dose 0.08 uM
[16] = primary screen, standard z score, dose 0.40 uM
[17] = primary screen, standard z score, dose 2.00 uM
[18] = primary screen, standard z score, dose 10.00 uM

Compound | Dose.FC.LYZ.S [1, 3] | Dose.FC.LYZ.S [1, 4] | Dose.FC.LYZ.S [1, 5] | Dose.FC.LYZ.S [1, 6] | Z.CTG (ENR+CD organoids; [7]) | Z.CTG (ENR+CD organoids; [8]) | Z.CTG (ENR+CD organoids; [9]) | Z.CTG (ENR+CD organoids; [10]) | Dose.FC.CTG (ENR+CD organoids; [11]) | Dose.FC.CTG (ENR+CD organoids; [12]) | Dose.FC.CTG (ENR+CD organoids; [13]) | Dose.FC.CTG (ENR+CD organoids; [14]) | Z.LYZ.NS [2, 7] | Z.LYZ.NS [2, 8] | Z.LYZ.NS [2, 9] | Z.LYZ.NS [2, 10] | Dose.FC.LYZ.NS [2, 11] | Dose.FC.LYZ.NS [2, 12] | Dose.FC.LYZ.NS [2, 13] | Dose.FC.LYZ.NS [2, 14] | further results
CC(C)(Cc1ccc2ccccc2c1)NC[C@@H](O)COc1cccc(Cl)c1C#N [NPS-2143] | 0.147 log2 fold change | −0.062 log2 fold change | −0.161 log2 fold change | −0.116 log2 fold change | 0.356 | −0.466 | −0.587 | −0.282 | 0.149 log2 fold change | −0.195 log2 fold change | −0.246 log2 fold change | −0.118 log2 fold change | 1.413 | −0.416 | −0.674 | −0.597 | 0.162 log2 fold change | −0.048 log2 fold change | −0.077 log2 fold change | −0.069 log2 fold change | –
O=C(Nc1cccnc1)N1CCC(Cc2cccc(Oc3ccc(C(F)(F)F)cn3)c2)CC1 [PF-3845] | 0.027 log2 fold change | −0.061 log2 fold change | −0.032 log2 fold change | −0.195 log2 fold change | −0.112 | 0.125 | −0.246 | −0.684 | −0.047 log2 fold change | 0.052 log2 fold change | −0.103 log2 fold change | −0.286 log2 fold change | 0.532 | −0.668 | −0.131 | −1.137 | 0.061 log2 fold change | −0.077 log2 fold change | −0.015 log2 fold change | −0.131 log2 fold change | –
CCOC(=O)CCNc1cc(N2CCc3ccccc3CC2)nc(-c2ccccn2)n1.Cl [GSK J4 HCl] | – | – | – | – | – | – | – | – | – | – | – | – | – | – | – | – | – | – | – | – | Dose.FC.LYZ.S (log2 fold change) ([1]; dose 0.08 uM): 0.086; Dose.FC.LYZ.S (log2 fold change) ([1]; dose 0.40 uM): 0.109; Dose.FC.LYZ.S (log2 fold change) ([1]; dose 2.00 uM): 0.041; Dose.FC.LYZ.S (log2 fold change) ([1]; dose 10.00 uM): −0.002; Dose.FC.CTG (log2 fold change) (ENR+CD organoids; primary screen, dose 0.08 uM): 0.124; Z.CTG (standard z score) (ENR+CD organoids; primary screen, dose 0.08 uM): 0.297; Dose.FC.CTG (log2 fold change) (ENR+CD organoids; primary screen, dose 0.40 uM): 0.099; Z.CTG (standard z score) (ENR+CD organoids; primary screen, dose 0.40 uM): 0.237; Dose.FC.CTG (log2 fold change) (ENR+CD organoids; primary screen, dose 2.00 uM): 0.002; Z.CTG (standard z score) (ENR+CD organoids; primary screen, dose 2.00 uM): 0.006; Dose.FC.CTG (log2 fold change) (ENR+CD organoids; primary screen, dose 10.00 uM): 0.233; Z.CTG (standard z score) (ENR+CD organoids; primary screen, dose 10.00 uM): 0.558; Dose.FC.LYZ.NS (log2 fold change) ([2]; primary screen, dose 0.08 uM): 0.058; Z.LYZ.NS (standard z score) ([2]; primary screen, dose 0.08 uM): 0.508; Dose.FC.LYZ.NS (log2 fold change) ([2]; primary screen, dose 0.40 uM): 0.050; Z.LYZ.NS (standard z score) ([2]; primary screen, dose 0.40 uM): 0.433; Dose.FC.LYZ.NS (log2 fold change) ([2]; primary screen, dose 2.00 uM): 0.018; Z.LYZ.NS (standard z score) ([2]; primary screen, dose 2.00 uM): 0.153; Dose.FC.LYZ.NS (log2 fold change) ([2]; primary screen, dose 10.00 uM): −0.001; Z.LYZ.NS (standard z score) ([2]; primary screen, dose 10.00 uM): −0.006
CC(C)(C)c1nc(-c2cccc(NS(=O)(=O)c3c(F)cccc3F)c2F)c(-c2ccnc(N)n2)s1 [Dabrafenib (GSK2118436)] | – | – | – | – | – | – | – | – | – | – | – | – | – | – | – | – | – | – | – | – | Dose.FC.LYZ.S ([1]; dose 0.08 uM): 0.236 log2 fold change; Dose.FC.LYZ.S ([1]; dose 0.40 uM): 0.103 log2 fold change; Dose.FC.LYZ.S ([1]; dose 2.00 uM): 0.019 log2 fold change; Dose.FC.LYZ.S ([1]; dose 10.00 uM): −0.384 log2 fold change; Dose.FC.CTG (ENR+CD organoids; primary screen, dose 0.08 uM): −0.134 log2 fold change; Dose.FC.CTG (ENR+CD organoids; primary screen, dose 0.40 uM): 0.011 log2 fold change; Dose.FC.CTG (ENR+CD organoids; primary screen, dose 2.00 uM): −0.279 log2 fold change; Dose.FC.CTG (ENR+CD organoids; primary screen, dose 10.00 uM): −0.800 log2 fold change; Z.CTG (ENR+CD organoids; [15]): −0.320; Z.CTG (ENR+CD organoids; [16]): 0.026; Z.CTG (ENR+CD organoids; [17]): −0.667; Z.CTG (ENR+CD organoids; [18]): −1.911; Dose.FC.LYZ.NS ([2]; primary screen, dose 0.08 uM): 0.095 log2 fold change; Dose.FC.LYZ.NS ([2]; primary screen, dose 0.40 uM): 0.049 log2 fold change; Dose.FC.LYZ.NS ([2]; primary screen, dose 2.00 uM): −0.001 log2 fold change; Dose.FC.LYZ.NS ([2]; primary screen, dose 10.00 uM): −0.250 log2 fold change; Z.LYZ.NS [2, 15]: 0.830; Z.LYZ.NS [2, 16]: 0.427; Z.LYZ.NS [2, 17]: −0.006; Z.LYZ.NS [2, 18]: −2.178
C[C@](O)(COc1ccc(C#N)cc1)C(=O)Nc1ccc(C#N)c(C(F)(F)F)c1 [MK-2866 (GTx-024)] | 0.072 log2 fold change | 0.050 log2 fold change | 0.078 log2 fold change | −0.072 log2 fold change | 0.003 | −0.474 | −0.210 | −0.877 | 0.001 log2 fold change | −0.198 log2 fold change | −0.088 log2 fold change | −0.367 log2 fold change | 0.309 | 0.241 | 0.310 | −0.510 | 0.035 log2 fold change | 0.028 log2 fold change | 0.036 log2 fold change | −0.059 log2 fold change | –

From patent US20220323406A1, “METHODS AND COMPOSITIONS FOR DIFFERENTIATING STEM CELLS” (Massachusetts Institute of Technology, priority 2019, published 2022)
